Bridge positions count the residues as written; N and C are the ends. Square brackets hold non-standard residues; d marks the D form. Peptide text beside a SMILES is read from it. NMeF = CN[C@@H](Cc1ccccc1)C(=O)O
What was measured:
[1] = target: human Granzyme B (hGranzyme B) (Homo sapiens, UniProt P10144); assay: Surface Plasmon Resonance (SPR) binding to human Granzyme B; settings: Table 8, 25° C.
Human granzyme B = Human granzyme B (Homo sapiens, UniProt P10144); assay: Granzyme B Biochemical Inhibition Assay; settings: granzyme B 8 nM; 30 min preincubation, room temperature
Method: Compounds to be tested as inhibitors were manually prepared in a 2-fold serial dilutions in DMSO, spanning 200 μM to 0.39 μM in a Labcyte Echo qualified low dead volume 384-well plate. Then an ECHO acoustic liquid handler was used to dispense 125 nL of each compound from 384-well plate into a PerkinElmer Proxiplate-384 Plus F assay plate. For the positive control of inhibitor, (S)-3-((3S,6S)-3-((2S,3S)-2-acetamido-3-methylpentanamido)-4-oxo-1,2,3,4,6,7-hexahydroazepino[3,2,1-hi]indole-6-carboxamido)-4-oxobutanoic acid (see C. A. Willoughby et al./Bioorg. Med. Chem. Lett. 12 (2002) 2197-2200 2199) was used at 2 μM assay concentration. For no inhibition control, DMSO was used. Each compound was run in duplicate.
Once the compounds were dispensed in the plates, enzyme mix and substrate mix were prepared. […] Subsequently, 3.125 μL of substrate mix were added to each well using the BioRaptr, reaching a final assay volume of 12.5 μL. and the plate was monitored using a Pherastar FS by 1 read per minute for 30 minutes in fluorescence mode, excitation wavelength is 400 nm and emission wavelength is 510 nm.
The data analysis was performed first in excel, where the slopes of the measured fluorescence from each sample were determined using MARS software from BMG LABTECH. […]

human Granzyme B (hGranzyme B), sequence (P10144 21-247): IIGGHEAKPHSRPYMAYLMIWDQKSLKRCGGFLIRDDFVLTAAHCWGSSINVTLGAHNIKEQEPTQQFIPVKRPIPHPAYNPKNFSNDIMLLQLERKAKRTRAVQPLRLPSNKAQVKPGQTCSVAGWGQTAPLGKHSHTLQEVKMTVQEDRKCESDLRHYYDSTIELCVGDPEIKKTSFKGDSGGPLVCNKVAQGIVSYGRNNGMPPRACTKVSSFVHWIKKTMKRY
Human granzyme B, sequence (P10144 21-247): as above

Kd [1]: 0.5 nM | IC50 (Human granzyme B): 113 nM
Compound: CC(C)[C@@H]1NC(=O)[C@H](CC(=O)O)NC(=O)[C@H](Cc2ccc(O)cc2)NC(=O)[C@H](Cc2ccc(O)cc2)NC(=O)[C@H](Cc2ccccc2)N(C)C(=O)[C@H](Cc2ccccc2)N(C)C(=O)[C@H](Cc2ccccc2)NC(=O)CSC[C@@H](C(=O)NCC(N)=O)NC(=O)[C@H](Cc2c[nH]cn2)NC(=O)[C@H](Cc2ccccc2)N(C)C(=O)[C@H](Cc2ccc(O)cc2)NC(=O)[C@H](C(C)C)NC(=O)[C@H](CC(=O)O)NC(=O)[C@H](C(C)C)NC(=O)[C@H](CC(=O)O)NC1=O [Compound 1a, *F.NMeF.NMeF.Y.Y.D.V.D.V.D.V.Y.NMeF.H.*C.G-NH2] ({CH2CO}-F[NMeF][NMeF]YYDVDVDVY[NMeF]HCG-NH2; thioether N-15)

From patent US20260297134A1, “CYCLIC PEPTIDES AS PET IMAGING AGENTS OF GRANZYME B” (Merck Sharp & Dohme LLC, priority 2023, published 2026)
